# Tests used:
# [1] = target: CXCR-4 transfected U87 cell line (U87.CXCR4) (Homo sapiens (Human), UniProt P61073); assay: Intracellular CXCL-12-induced calcium mobilization assay (FLIPR); assay type: cell-based; conditions: U87.CXCR4 cells, CXCL-12 25-50 ng/mL; read-out: IC50 CXCL-12 Ca2+ flux U87.CXCR4+
# Description: Example 28: REGA Screening Assay
# Intracellular CXCL-12-Induced Calcium Mobilization Assay
# Intracellular calcium mobilization induced by chemokines or chemokine-derived peptides were evaluated using a calcium responsive fluorescent probe and a FLIPR system. The CXCR-4 transfected U87 cell line (U87.CXCR4) cells were seeded in gelatine-coated black-wall 96-well plates at 20,000 cells per well and incubated for 12 hours. Cells were then loaded with the fluorescent calcium probe Fluo-2 acetoxymethyl at 4 μM final concentration in assay buffer (Hanks' balanced salt solution with 20 mM HEPES buffer and 0.2% bovine serum albumin, pH 7.4) for 45 min at 37° C. The intracellular calcium mobilization induced by the CXCL-12 (25-50 ng/mL) was then measured at 37° C. by monitoring the fluorescence as a function of time in all the wells simultaneously using a fluorometric imaging plate reader (FLIPR Tetra, Molecular Devices).
# [2] = target: Jurkat cells expressing CXCR4 (Homo sapiens (Human), UniProt P61073); assay: Chemokine (CXCL12-AF647) binding inhibition assay; conditions: CXCL12-AF647 25 ng/mL, read-out: IC50 CXCL-12 binding Jurkat
# Chain of Jurkat cells expressing CXCR4 (P61073 whole entry): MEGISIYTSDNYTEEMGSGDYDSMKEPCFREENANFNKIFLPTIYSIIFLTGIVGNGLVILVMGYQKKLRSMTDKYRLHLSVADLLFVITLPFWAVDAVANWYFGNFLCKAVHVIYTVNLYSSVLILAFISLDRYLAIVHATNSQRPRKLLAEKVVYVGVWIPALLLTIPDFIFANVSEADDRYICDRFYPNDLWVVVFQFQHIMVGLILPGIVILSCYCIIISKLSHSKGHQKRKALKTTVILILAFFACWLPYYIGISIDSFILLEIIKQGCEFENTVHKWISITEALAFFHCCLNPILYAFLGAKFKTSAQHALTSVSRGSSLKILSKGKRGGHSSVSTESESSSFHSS
# Description: Chemokine (CXCL12-AF647) Binding Inhibition Assay
# Jurkat cells expressing CXCR4 were washed once with assay buffer (Hanks' balanced salt solution with 20 mM HEPES buffer and 0.2% bovine serum albumin, pH 7.4) and then incubated for 15 min at room temperature with the test compounds diluted in assay buffer at dose-dependent concentrations. Subsequently, CXCL12-AF647 (25 ng/mL) was added to the compound-incubated cells. The cells were incubated for 30 min at room temperature. Thereafter, the cells were washed twice in assay buffer, fixed in 1% paraformaldehyde in PBS, and analyzed on the FL4 channel of a FACSCalibur flow cytometer equipped with a 635-nm red diode laser (Becton Dickinson, San Jose, Calif., USA).
# The percentages of inhibition of CXCL12-AF647 binding were calculated according to the formula: [1−((MFI−MFINC)/(MFIPC−MFINC))]×100 where MFI is the mean fluorescence intensity of the cells incubated with CXCL12-AF647 in the presence of the inhibitor, MFINC is the mean fluorescence intensity measured in the negative control (i.e., autofluorescence of unlabeled cells), and MFIPC is the mean fluorescence intensity of the positive control (i.e., cells exposed to CXCL12-AF647 alone).
# in vitro = conditions: human, Caco-2, pH 7.4
# Description: Example 28: Caco-2 Permeability Assay
# The goal of this assay was to evaluate the intestinal absorption potential of drug candidates using Caco-2 cell lines.
# 1. Prewarm Prewarm HBSS Buffer in 37° C. water bath
# 2. Sonicate Take compounds from −20° C., sonicate for a few minutes (no less than 1 minute)
# HBSS buffer with 0.3% DMSO and 5 μM LY: add 150 μL DMSO and 50 μL LY (5 mM) into 50 ml HBSS buffer (pH 7.4).
# HBSS buffer with 0.1% DMSO and 5 μM LY: add 50 μL DMSO and 50 μL LY (5 mM) into 50 mL HBSS buffer (pH 7.4).
# HBSS buffer with 0.3% DMSO: add 150 μL DMSO into 50 ml HBSS buffer (pH 7.4).
# HBSS buffer with 0.1% DMSO: add 50 μL DMSO into 50 ml HBSS buffer (pH 7.4).
# Receiver Solution Buffer:
# Prepare HBSS buffer with 0.4% DMSO: add 200 μL DMSO into 50 ml HBSS buffer (pH 7.4).
# Prepare HBSS buffer with 0.4% DMSO and 5 μM LY: add 200 μL DMSO and 50 μL LY (5 mM) into 50 ml HBSS buffer (pH 7.4).
# 4. Measure TEER Take cell culture plate out of incubator, wash the cell monolayers with HBSS buffer, and then measure TEER values at Rm temperature. 5. Centrifuge Centrifuge the compound solution (from step 3) at 4000 rpm for 5 min before loading to donor chambers. 6. Dosing Add solution based on the volumes listed in the following table (make sure to take extra 100 μL of donor sample for TO as Backup).
# 7. Apical LYT0 Samples To determine LY concentration in the apical chember, take 100 μL sample from apical chambers into an opaque plate for LYT0. 8. Prewarm Prewarm apical and basolateral plates at 37° C. for about 5 min, then begin transport by placing the apical plate onto basolateral plate. 9. Incubation Keep the plates in incubator at 37° C. for 90 min. 10. Standard Curve Preparation
# For 300 μM compound solution, add 6 μL of compound stock solution into 192 μL of MeOH/H2O (1:1).
# Prepare Working Solution in MeOH/H2O (1:1)
# 3 μL (20×)+57 μL of 0.4% DMSO HBSS+60 μL ACN with IS (Osalmid or Imipramine) - - - 120 μL (1×)
# 11. Transport Termination Separate the apical plate from the basolateral plate after 90-min incubation.
# 12. Measure LY Take 100 μL samples from basolateral plate to an opaque plate as LYT90.
# 13. Measure LY concentrations for LYT0 and LYT90 by Fluorometer (at excitation of 485 nm/emission of 535 nm).
# Study details: Test concentration 10 μM
# Test systems: Caco-2/HBSS solution
# Incubation conditions: 0, 90 min at 37° C.
# Sample size: Duplicates (n=2)
# Bioanalytical method: LC-MS/MS
# For Millicell-24 Cell Culture Plates: surface area of the membrane=0.7 cm^2, VA=0.8 mL (A-to-B) or 0.4 mL (B-to-A)
# 1. Papp values were calculated based on calculated concentrations.
# The compound numbers correspond to the compound numbers in Table 1.
# Chain of CXCR-4 transfected U87 cell line (U87.CXCR4) (P61073 whole entry): as above
Structure (SMILES),IC50 [1] [nM],IC50 [2] [nM],"Papp A→B at 90 min, 10 μM (in vitro) [×10⁻⁶ cm/s]","Papp B→A at 90 min, 10 μM (in vitro) [×10⁻⁶ cm/s]","efflux ratio at 90 min, 10 μM (in vitro)","Papp at 90 min, 10 μM (in vitro) [×10⁻⁶ cm/s]"
Cc1cccnc1[C@@H]1CCC[C@H](c2cn3ccccc3n2)N1CCn1cccn1 [Compound I-10],0.01 to 100,0.01 to 100,–,–,–,–
Cc1cccnc1[C@@H]1CCC[C@H](c2cn3c(N4CCN(C)CC4)ccc(N)c3n2)N1C [Compound I-76],0.01 to 100,0.01 to 100,0.1 to 10,10 to 30,10 to 30,–
Cc1cccnc1[C@@H]1CCC[C@H](c2nc3ccccn3c2COC2CCN(C)CC2)N1C [Compound I-62],≥ 1000,100 to 1000,0.1 to 10,10 to 30,> 30,–
Cc1cccnc1[C@@H]1CCC[C@H](c2nc3ccccn3c2CCCN2CCOCC2)N1C [Compound I-29],100 to 1000,0.01 to 100,0.1 to 10,10 to 30,0.1 to 10,–
CN1C2CCC1CN(c1cccc3nc([C@H]4CCC[C@@H](c5ncccc5Cl)N4C)c(CO)n13)C2 [Compound I-135],0.01 to 100,0.01 to 100,0.1 to 10,10 to 30,0.1 to 10,–
Cc1cccnc1[C@@H]1CCC[C@H](c2nc3cccc(N4CC5CCC(C4)N5C)n3c2Cl)N1C [Compound I-137],100 to 1000,0.01 to 100,0.1 to 10,0.1 to 10,0.1 to 10,–
Cc1cccnc1[C@@H]1CCC[C@H](c2cn3c(N4CCN(C5CCOCC5)CC4)cccc3n2)N1C [Compound I-53],100 to 1000,0.01 to 100,0.1 to 10,10 to 30,0.1 to 10,–
Cc1cccnc1[C@@H]1CCC[C@H](c2cn3c(N4CCN5CCCC5C4)cccc3n2)N1C (stereo partly drawn) [Compound I-77],0.01 to 100,0.01 to 100,10 to 30,> 30,0.1 to 10,–
Cc1cccnc1[C@@H]1CCC[C@H](c2cn3c(N4CCNCC4)cccc3n2)N1C [Compound I-4],0.01 to 100,0.01 to 100,0.1 to 10,10 to 30,> 30,–
Cc1cccnc1[C@@H]1CCC[C@H](c2cn3c(-c4ccccn4)cccc3n2)N1 [Compound I-216],≥ 1000,≥ 1000,–,–,–,–
Cc1cccnc1[C@@H]1CCC[C@H](c2cn3c(-c4cccnc4)cccc3n2)N1 [Compound I-215],≥ 1000,≥ 1000,–,–,–,–
CCOCc1c([C@H]2CCC[C@@H](c3ncccc3C(C)C)N2C)nc2cccc(N3CCN(CC)CC3)n12 [Compound I-59],≥ 1000,100 to 1000,–,–,–,–
Cc1cccnc1[C@@H]1CCC[C@H](c2cn3c(-c4ccncc4)cccc3n2)N1 [Compound I-214],≥ 1000,≥ 1000,–,–,–,–
Cc1cccnc1[C@@H]1CCC[C@H](c2nc3ccccn3c2CCC#N)N1 [Compound I-219],≥ 1000,≥ 1000,–,–,–,–
"CC[C@H]1OC(=O)[C@H](C)[C@@H](O[C@H]2C[C@@](C)(OC)[C@@H](O)[C@H](C)O2)[C@H](C)[C@@H](O[C@@H]2O[C@H](C)C[C@H](N(C)C)[C@H]2O)[C@](C)(O)C[C@@H](C)C(=O)[C@H](C)[C@@H](O)[C@]1(C)O [Erythromycin, reference compound]",–,–,–,–,> 116,–
Cc1cccnc1[C@@H]1CCC[C@H](c2cn3c(CCc4ccccn4)cccc3n2)N1C [Compound I-7],≥ 1000,100 to 1000,–,–,–,–
CN1CCN(c2cccc3nc([C@H]4CCC[C@@H](c5ncccc5C(F)(F)F)N4C)c(Cl)n23)CC1 [Compound I-119],≥ 1000,0.01 to 100,–,–,–,–
Cc1cccnc1[C@@H]1CCC[C@H](c2cn3ccccc3n2)N1CCCCN [Compound I-2],100 to 1000,100 to 1000,–,–,–,–
"COCCc1ccc(OCC(O)CNC(C)C)cc1 (stereo not drawn) [Metoprolol, reference compound]",–,–,–,–,–,> 10
Cc1cccnc1[C@@H]1CCC[C@H](c2cn3c(-c4cncn4C)cccc3n2)N1 [Compound I-213],≥ 1000,≥ 1000,–,–,–,–
Cc1cccnc1[C@@H]1CCC[C@H](c2nc3ccccn3c2-c2ccccn2)N1 [Compound I-209],–,≥ 1000,–,–,–,–
Cc1cccnc1[C@@H]1CCC[C@H](c2cn3ccccc3n2)N1CCc1ccccn1 [Compound I-8],0.01 to 100,0.01 to 100,–,–,–,–
Cc1cccnc1[C@@H]1CCC[C@H](c2cn3c(N4CCN(C)CC4=O)cccc3n2)N1 [Compound I-211],≥ 1000,100 to 1000,–,–,–,–
Cc1cccnc1[C@H]1CCC[C@@H](c2nc3ccccn3c2CCCN)N1C (stereo in doubt) [Compound I-26],100 to 1000,0.01 to 100,–,–,–,–
CC(C)c1cccnc1[C@@H]1CCC[C@H](c2nc3cccc(N4CCN(C)CC4)n3c2CO)N1C [Compound I-74],≥ 1000,100 to 1000,–,–,–,–
Cc1cccnc1[C@@H]1CCC[C@H](c2cn3c(-c4ccncc4)cccc3n2)N1C [Compound I-5],100 to 1000,0.01 to 100,–,–,–,–
Cc1cccnc1[C@@H]1CCC[C@H](c2cn3c(-c4ccnn4C)cccc3n2)N1 [Compound I-212],≥ 1000,≥ 1000,–,–,–,–

# Source: patent US10759796B2, “CXCR4 inhibitors and uses thereof” (X4 Pharmaceuticals, Inc., priority 2016, dated 2020)
